Results on 3 compounds are retold here after US10736902B2, “Method of treating triple negative breast cancer” (GEISTLICH PHARMA AG, priority 2016, dated 2020).

The term half-life denotes the time needed for the level to fall by half in the phase considered.

Data set [1] relates to tumor stem cells. Nature of the data set: Tumor stem cell killing in tissue culture in vitro. It counts as cell-based.
Data set [2] concerns human peripheral blood monocytes. Briefly: Safety in non-neoplastic cells: cell death of monocytes. In kind it is cell-based. The following applies: for cell death in human peripheral blood monocytes: 100 microMol up to 5000 microMol; for effect on peripherally derived human monocytes: high doses (5 mM), after 24 hours (FIG. 7B).
A short description of data set [3]: Wound healing after administration during or after surgery. The following applies: administered during surgery and immediately after surgery.
Data set [4] in a line: Water solubility / isotonicity. In kind it is physicochemical.
The subject of data set [5] is ER negative breast cancer cells (BT-20 and MDA-MB-231) and ER positive cells (BT-474 and MCF-7). Nature of the data set: Apoptosis/necrosis (annexin V / propidium iodide) and ROS in breast cancer cells. In kind it is cell-based. The following applies: for dose dependence of cell death: ER-positive and ER-negative breast cancer cells, increasing concentrations, most pronounced with TNBC cells; for generation of ROS: substantially reduced by NAC, significantly increased with BSO. As to the method:
Methods: Primary and metastatic ER negative breast cancer cells (BT-20 and MDA-MB-231) and ER positive cells (BT-474 and MCF-7) were separately treated with increasing concentrations of Taurolidine and 2250 as shown in FIG. 7A and FIG. 8A. Apoptosis and necrosis were evaluated based on phosphatidylserine externalization using annexin V and propidium iodide (PI). The contribution of caspases 3, 8 and 9 on apoptosis, and autophagy was evaluated by both flow cytometry and western blotting. The impact of reactive oxygen species (ROS) was evaluated using the radical scavenger agent n-acetylcysteine (NAC) and buthionine-sulfoximine (BSO), a glutathione-depleting agent. Necroptosis was evaluated using nescrostatin-1, a potent inhibitor of the process.

Data set [6] in a line: Half-life in human fresh blood at 37° C. It counts as in vitro ADME. The conditions noted are these: for half-life: human, fresh whole blood. As for the experimental part: The half-life of 2250 was measured in human fresh blood at 37° C.

The structures appear in SMILES notation. Like-named read-outs stand apart in the source and are kept apart here. A value given as a limit tells only on which side of the number the result lay.

Consider `O=S1(=O)CCNCN1` [taurultam], for which the “killing of tumor stem cells” value in data set [1] is “kill tumor stem cells”.
Consider `O=S1(=O)CCOCN1` [C-2250, Tetrahydro1,4,5-oxathiazin-4-dioxide], for which, in data set [2], the “cell death in human peripheral blood monocytes” value is “did not induce any significant cell death” and the “effect on peripherally derived human monocytes” value is “no significant effect”. Further, the “effect on wound healing” value in data set [3] was “do not hinder wound healing”. For the same compound, the solubility in water entry in data set [4] (no PVP necessary) was “very soluble in water”. Further, in data set [4] (solution), the “concentration of isotonic solution” value was found to be 3.2%. Moreover, in data set [5], the “dose dependence of cell death” value was “Dose-dependent increases in cell death” and the “generation of ROS” value was “induced generation of ROS”. In data set [6] (human fresh blood, 37° C., 0-1 hours), the “Concentration of 2250 measured” value amounted to 50 ppm. The “Concentration of 2250 measured” value in data set [6] (human fresh blood, 37° C., 2 hours) was 47.7 ppm. In data set [6] (human blood, read-out: half-life in human blood), the half-life was greater than 24 h. In addition, the half-life in data set [6] (human fresh blood, 37° C., calculated from measured concentrations, read-out: half-life (calculated) (converted)) is roughly 40 h.
For the compound `O=S1(=O)CCN(CN2CCS(=O)(=O)NC2)CN1` [taurolidine, reference compound], in data set [2], the “cell death in human peripheral blood monocytes” value is “did not induce any significant cell death” and the “effect on peripherally derived human monocytes” value was “no significant effect”. In data set [5], the “dose dependence of cell death” value is listed as “Dose-dependent increases in cell death” and the “generation of ROS” value was “induced generation of ROS”. Besides, the half-life in data set [6] (human blood, same test, read-out: half-life in human blood) was roughly 0.5 h. The “killing of tumor stem cells” value in data set [1] was “kill tumor stem cells”. The “concentration effective at killing tumor stem cells” value in data set [1] (tissue culture in vitro) is 0.01 µg/mL.
